Measurements as given in patent US8192962B2, “Processes for detecting toxic substances” (Daikin Industries, Ltd., priority 2001, dated 2012).

Test system: Energy system protein genes
Experiment: DNA chip mRNA expression in yeast, energy system protein genes (Table 4)
Type: cell-based, Saccharomyces cerevisiae S288C
Method in brief: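 Untreated cultures served as reference for log-phase S288C yeast given a growth-inhibiting, non-lethal toxicant dose for 2 h at 25° C. in YPD. Gene expression was measured on a whole-genome DNA chip from Cy3/Cy5-labeled cDNA.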

CCCCC[C@H](O)CC(=O)CCc1ccc(O)c(OC)c1 [(13), gingerol]
The level of expressed mRNA in the presence of chemical substance/The level of expressed mRNA in the absence of chemical substance (yeast gene YAL038W): 1.8
The level of expressed mRNA in the presence of chemical substance/The level of expressed mRNA in the absence of chemical substance (yeast gene YAL054C): 1.8
The level of expressed mRNA in the presence of chemical substance/The level of expressed mRNA in the absence of chemical substance (yeast gene YAL060W): 2.2
The level of expressed mRNA in the presence of chemical substance/The level of expressed mRNA in the absence of chemical substance (yeast gene YBL058W, cells incubated two hours with the chemical substance): 1.6
The level of expressed mRNA in the presence of chemical substance/The level of expressed mRNA in the absence of chemical substance (yeast gene YBR126C): 2.1
The level of expressed mRNA in the presence of chemical substance/The level of expressed mRNA in the absence of chemical substance (yeast gene YBR145W): 2.0
The level of expressed mRNA in the presence of chemical substance/The level of expressed mRNA in the absence of chemical substance (yeast gene YBR185C, cells incubated two hours with the chemical substance): 1.0
The level of expressed mRNA in the presence of chemical substance/The level of expressed mRNA in the absence of chemical substance (yeast gene YBR196C): 1.4
The level of expressed mRNA in the presence of chemical substance/The level of expressed mRNA in the absence of chemical substance (yeast gene YBR299W): 0.7
The level of expressed mRNA in the presence of chemical substance/The level of expressed mRNA in the absence of chemical substance (yeast gene YCR005C): 0.7
The level of expressed mRNA in the presence of chemical substance/The level of expressed mRNA in the absence of chemical substance (yeast gene YCR046C, cells incubated two hours with the chemical substance): 1.5
The level of expressed mRNA in the presence of chemical substance/The level of expressed mRNA in the absence of chemical substance (yeast gene YCR107W): 4.0
The level of expressed mRNA in the presence of chemical substance/The level of expressed mRNA in the absence of chemical substance (yeast gene YDL067C, cells incubated two hours with the chemical substance): 0.6
The level of expressed mRNA in the presence of chemical substance/The level of expressed mRNA in the absence of chemical substance (yeast gene YDL078C, cells incubated two hours with the chemical substance): 1.0
The level of expressed mRNA in the presence of chemical substance/The level of expressed mRNA in the absence of chemical substance (yeast gene YDL107W, cells incubated two hours with the chemical substance): 1.2
The level of expressed mRNA in the presence of chemical substance/The level of expressed mRNA in the absence of chemical substance (yeast gene YDL174C): 5.9
The level of expressed mRNA in the presence of chemical substance/The level of expressed mRNA in the absence of chemical substance (yeast gene YDR001C): 2.8
The level of expressed mRNA in the presence of chemical substance/The level of expressed mRNA in the absence of chemical substance (yeast gene YDR231C): 2.4
The level of expressed mRNA in the presence of chemical substance/The level of expressed mRNA in the absence of chemical substance (yeast gene YDR298C, cells incubated two hours with the chemical substance): 1.2
The level of expressed mRNA in the presence of chemical substance/The level of expressed mRNA in the absence of chemical substance (yeast gene YDR377W, cells incubated two hours with the chemical substance): 0.7
The level of expressed mRNA in the presence of chemical substance/The level of expressed mRNA in the absence of chemical substance (yeast gene YDR380W): 0.4
The level of expressed mRNA in the presence of chemical substance/The level of expressed mRNA in the absence of chemical substance (yeast gene YDR529C, cells incubated two hours with the chemical substance): 0.7
The level of expressed mRNA in the presence of chemical substance/The level of expressed mRNA in the absence of chemical substance (yeast gene YEL011W): 1.5
The level of expressed mRNA in the presence of chemical substance/The level of expressed mRNA in the absence of chemical substance (yeast gene YEL020C): 1.2
The level of expressed mRNA in the presence of chemical substance/The level of expressed mRNA in the absence of chemical substance (yeast gene YEL024W, cells incubated two hours with the chemical substance): 0.6
The level of expressed mRNA in the presence of chemical substance/The level of expressed mRNA in the absence of chemical substance (yeast gene YEL047C, cells incubated two hours with the chemical substance): 1.6
The level of expressed mRNA in the presence of chemical substance/The level of expressed mRNA in the absence of chemical substance (yeast gene YEL071W, cells incubated two hours with the chemical substance): 1.6
The level of expressed mRNA in the presence of chemical substance/The level of expressed mRNA in the absence of chemical substance (yeast gene YER178W): 2.4
The level of expressed mRNA in the presence of chemical substance/The level of expressed mRNA in the absence of chemical substance (yeast gene YFR015C): 2.5
The level of expressed mRNA in the presence of chemical substance/The level of expressed mRNA in the absence of chemical substance (yeast gene YFR053C): 3.0
The level of expressed mRNA in the presence of chemical substance/The level of expressed mRNA in the absence of chemical substance (yeast gene YGL134W): 0.7
The level of expressed mRNA in the presence of chemical substance/The level of expressed mRNA in the absence of chemical substance (yeast gene YGL187C, cells incubated two hours with the chemical substance): 0.7
The level of expressed mRNA in the presence of chemical substance/The level of expressed mRNA in the absence of chemical substance (yeast gene YGL191W, cells incubated two hours with the chemical substance): 1.1
The level of expressed mRNA in the presence of chemical substance/The level of expressed mRNA in the absence of chemical substance (yeast gene YGL205W, cells incubated two hours with the chemical substance): 1.0
The level of expressed mRNA in the presence of chemical substance/The level of expressed mRNA in the absence of chemical substance (yeast gene YGL253W): 1.5
The level of expressed mRNA in the presence of chemical substance/The level of expressed mRNA in the absence of chemical substance (yeast gene YGR008C): 3.4
The level of expressed mRNA in the presence of chemical substance/The level of expressed mRNA in the absence of chemical substance (yeast gene YGR062C, cells incubated two hours with the chemical substance, 25° C., YPD medium): 1.5
The level of expressed mRNA in the presence of chemical substance/The level of expressed mRNA in the absence of chemical substance (yeast gene YGR112W, cells incubated two hours with the chemical substance): 1.1
The level of expressed mRNA in the presence of chemical substance/The level of expressed mRNA in the absence of chemical substance (yeast gene YGR192C): 3.4
The level of expressed mRNA in the presence of chemical substance/The level of expressed mRNA in the absence of chemical substance (yeast gene YGR207C): 1.0
The level of expressed mRNA in the presence of chemical substance/The level of expressed mRNA in the absence of chemical substance (yeast gene YGR244C): 2.6
The level of expressed mRNA in the presence of chemical substance/The level of expressed mRNA in the absence of chemical substance (yeast gene YGR254W): 3.1
The level of expressed mRNA in the presence of chemical substance/The level of expressed mRNA in the absence of chemical substance (yeast gene YHL008C): 1.8
The level of expressed mRNA in the presence of chemical substance/The level of expressed mRNA in the absence of chemical substance (yeast gene YHR179W): 2.6
The level of expressed mRNA in the presence of chemical substance/The level of expressed mRNA in the absence of chemical substance (yeast gene YIL045W): 2.0
The level of expressed mRNA in the presence of chemical substance/The level of expressed mRNA in the absence of chemical substance (yeast gene YIL111W): 1.7
The level of expressed mRNA in the presence of chemical substance/The level of expressed mRNA in the absence of chemical substance (yeast gene YIL160C): 2.3
The level of expressed mRNA in the presence of chemical substance/The level of expressed mRNA in the absence of chemical substance (yeast gene YIL172C): 2.0
